The results in this text go back to patent US8148572B2, “Compounds” (AstraZeneca AB, priority 2005, dated 2012).

This experiment addresses T1, rhCRTh2 (Homo sapiens, UniProt Q9Y5Y4).
T1 construct: expressed in transfected cells; host or cells: HEK cells (membrane preparation)
T1 sequence (Q9Y5Y4 1-395): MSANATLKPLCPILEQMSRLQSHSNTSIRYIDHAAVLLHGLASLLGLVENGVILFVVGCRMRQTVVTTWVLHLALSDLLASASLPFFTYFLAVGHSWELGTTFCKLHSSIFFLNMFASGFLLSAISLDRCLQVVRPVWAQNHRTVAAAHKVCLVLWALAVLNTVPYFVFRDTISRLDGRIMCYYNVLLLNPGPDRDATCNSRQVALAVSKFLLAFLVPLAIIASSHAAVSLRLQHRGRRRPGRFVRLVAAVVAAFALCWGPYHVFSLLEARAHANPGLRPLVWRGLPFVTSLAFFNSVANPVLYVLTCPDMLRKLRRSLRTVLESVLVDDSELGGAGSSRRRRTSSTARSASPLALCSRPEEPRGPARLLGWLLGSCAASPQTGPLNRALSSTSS
The experiment is described as follows: Ligand Binding Assay ([3H]PGD2 displacement, SPA beads coated with HEK cell membranes). As to conditions: [3H]PGD2 binding to HEK cell membranes containing CRTh2; read-out: pIC50 value (converted). The protocol: [^3H]PGD2 was purchased from Perkin Elmer Life Sciences with a specific activity of 100-210 Ci/mmol. All other chemicals were of analytical grade.
HEK cells expressing rhCRTh2/Gα16 were routinely maintained in DMEM containing 10% Foetal Bovine Serum (HyClone), 1 mg/ml geneticin, 2 mM L-glutamine and 1% non-essential amino acids. For the preparation of membranes, the adherent transfected HEKcells were grown to confluence in two layer tissue culture factories (Fisher, catalogue number TKT-170-070E). Maximal levels of receptor expression were induced by addition of […] sodium butyrate for the last 18 hours of culture. The adherent cells were washed once with phosphate buffered saline (PBS, 50 ml per cell factory) and detached by the addition of 50 ml per cell factory of ice-cold membrane homogenisation buffer [20 mM HEPES (pH 7.4), 0.1 mM dithiothreitol, 1 mM EDTA, 0.1 mM phenyl methyl sulphonyl fluoride and 100 µg/ml bacitracin]. Cells were pelleted by centrifugation at 220×g for 10 minutes at 4° C., re-suspended in half the original volume of fresh membrane homogenisation buffer and disrupted using a Polytron homogeniser for 2×20 second bursts keeping the tube in ice at all times. […] The final pellet was re-suspended in 4 ml of membrane homogenisation buffer per cell factory used and the protein content determined. […]
All assays were performed in Corning clear bottomed, white 96-well NBS plates (Fisher). […] (The optimum coating concentrations were determined for each batch of membranes) The beads were pelleted by centrifugation (800×g for 7 minutes at 4° C.), washed once with assay buffer (50 mM HEPES pH 7.4 containing 5 mM magnesium chloride) and finally re-suspended in assay buffer at a bead concentration of 10 mg/ml. […]
Compounds and DK-PGD2 were dissolved in DMSO and diluted in the same solvent to 100× the required final concentration. […] The assay plate was incubated at room temperature for 2 hours and counted on a Wallac Microbeta liquid scintillation counter (1 minute per well).
Turning to `CN(C)S(=O)(=O)c1ccc(Oc2cc(CC(=O)O)ccc2Cl)c(Cl)c1` [Example 7, (4-chloro-3-{2-chloro-4-[(dimethylamino)sulfonyl]phenoxy}phenyl)acetic acid], the IC50 is 7.94 nM.

Consider `CS(=O)(=O)c1ccc(Oc2cc(CC(=O)O)ccc2Cl)c(C#N)c1` [Example 11, {4-chloro-3-[2-cyano-4-(methylsulfonyl)phenoxy]phenyl}acetic acid], for which the IC50 was 8.91 nM. With `CS(=O)(=O)c1ccc(Oc2cc(CC(=O)O)ccc2Cl)c(F)c1` [Example 9, {4-chloro-3-[2-fluoro-4-(methylsulfonyl)phenoxy]phenyl}acetic acid] the figure was 14.1 nM.
